We go through 75 compounds from PubChem BioAssay AID2742 (NMMLSC, 2010).

Values joined by “and” are separate entries in the source; they are usually repeats but may differ in a detail not shown here. Identical values can stand only once. Active and inactive are the calls of the source.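 Rule for the calls: active = fitted half-maximal concentration for changing background-corrected GFP signal at or below a set limit; inactive = the rest.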

The nature of this experiment: modulators of MEP2-GFP levels in yeast, dose response, S. cerevisiae, flow cytometry GFP, MLPCN hits (AID 2742).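 Note: GFP tag reports level of MEP2 protein as a downstream target of TOR signalling.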 Particulars: S. cerevisiae MEP2-GFP strain, flow cytometry fluorescence, 3 h; at 33 µM (top of the series). For orientation: In flow cytometry, cells or beads pass a laser one at a time.

Take `O=C1NC(=O)N(CCc2ccc(F)cc2)C(=O)/C1=C/c1cccs1`: the GFP fluorescence (kMESF), higher = increase is 4.39 kMESF (inactive).
To `CS(=O)(=O)c1sc(C#N)c2c1C(=O)CC(c1ccccc1)C2` (stereo not given) belongs 4.8 kMESF (inactive); to `N#Cc1nccnc1S(=O)(=O)c1cccs1`, 2.29 kMESF (inactive); to `O=[N+]([O-])c1cc(Cl)c2cccnc2c1O`, 5.35 kMESF (inactive).
As for `CCOC(=O)C1=C(O)c2ccccc2C(=O)/C1=C\c1ccc(C)cc1`, the figure is -34.5 kMESF (inactive); as for `COc1cc(NC(=O)c2cccc(C)c2)ccc1NC(=O)c1cc2ccccc2o1`, 2.2 kMESF (inactive).
As for `O=C1N(c2ccccc2C(F)(F)F)O[C@]1(c1ccccc1)C1CCCCC1`, the figure is 3.28 kMESF (inactive); as for `O=C(c1ccc(Cl)c([N+](=O)[O-])c1)N1CCN(c2ccccc2)CC1`, 2.46 kMESF (inactive).
As for `COc1cc(N=c2ssnc2Cl)c(OC)cc1Cl`, the GFP fluorescence (kMESF), higher = increase was 6.31 kMESF (inactive) and 6.98 kMESF (inactive).
As for `O=C(c1ccccn1)c1conc1C(=O)c1ccc(Br)cc1`, the figure is 2.83 kMESF (inactive); as for `CC1(C)OC(c2ccccc2)=C/C(=C/C=C2C(=O)NC(=S)NC2=O)O1`, 2.7 kMESF (inactive).
With `CCOc1ccccc1/C=c1\sc2ncnn2c1=O`, the GFP fluorescence (kMESF), higher = increase was 4.47 kMESF (inactive).
To `COc1ccc(N/N=C(\C#N)C(N)=O)cc1` belongs 1.24 kMESF (inactive).
To `Cc1c(C)c2ccc(Oc3ccc([N+](=O)[O-])cc3C(F)(F)F)c(C)c2oc1=O` belongs 2 kMESF (inactive).
To `Cc1ccc(C2=NN(S(C)(=O)=O)C(c3ccc4c(c3)OCO4)C2)cc1` (stereo not given) belongs 2.44 kMESF (inactive); to `O=C1c2ccccc2C(=O)N1OS(=O)(=O)c1ccc(F)cc1`, 3.26 kMESF (inactive).
On to `Cc1[nH]n(-c2ccccc2)c(=O)c1C(c1ccccc1[N+](=O)[O-])C(C#N)C#N` (stereo not given), for which the GFP fluorescence (kMESF), higher = increase was 4.8 kMESF (inactive).
On to `CCOc1ccc(N2C(=O)/C(=C\c3cccs3)C(=O)NC2=S)cc1`, for which the GFP fluorescence (kMESF), higher = increase was 3.57 kMESF (inactive).
To `O=c1c(-c2ccc(Cl)cc2)[n+]([O-])c2ccccc2n1O` belongs 24.9 kMESF (inactive); to `CC[C@@]1(c2ccccc2OC)ON(c2ccccc2C(F)(F)F)C1=O`, 3.17 kMESF (inactive).
As for `O=C(O)/C=C/C(=O)c1ccc2c(c1)CCc1ccccc1-2`, the figure is 4.6 kMESF (inactive).
Take `COc1ccc(CCNC2=C(Cl)C(=O)N(CCc3ccc(OC)c(OC)c3)C2=O)cc1OC`: the GFP fluorescence (kMESF), higher = increase was 2.9 kMESF (inactive).
As for `Cc1ccccc1C(=O)NNC(=S)NC(=O)c1ccc(Cl)cc1Cl`, the figure is 6.21 kMESF (inactive).
To `CCN(CC)c1ccc2cc(-c3nc4ccccc4[nH]3)c(=O)oc2c1` belongs 6.39 kMESF (inactive); to `COc1ccc(/C=C2/C(=O)ON=C2c2ccccc2)cc1OC`, 4.51 kMESF (inactive); to `COc1ccc2c(c1)S/C(=C\C(=O)c1ccncc1)N2C`, 2.67 kMESF (inactive).
With `COc1cc(C=C2C(=O)c3ccccc3C2=O)cc(OC)c1`, the GFP fluorescence (kMESF), higher = increase was 2.05 kMESF (inactive).
As for `Cc1[nH]c(-c2ccccn2)nc(=S)c1Cl`, the figure is 4.24 kMESF (inactive); as for `COc1cc(NC(=O)c2ccccc2[N+](=O)[O-])ccc1NC(=O)c1cc2ccccc2o1`, 2.3 kMESF (inactive); as for `O=C(Nc1ccc(NC(=O)c2cc3ccccc3o2)cc1)c1ccc2c(c1)OCCO2`, 2.4 kMESF (inactive).
To `CCCCC(=O)NC(=S)NNC(=O)CCc1ccccc1` belongs 3.11 kMESF (inactive); to `COc1cc(/C=C2\C(=O)ON=C2c2ccccc2)cc(OC)c1OC`, 3.21 kMESF (inactive).
To `CC1(C(=O)NC(=S)NNC(=O)c2ccncc2)CCCCC1` belongs 3.51 kMESF (inactive).
On to `O=C(/C=C/c1ccccn1)c1cc(Br)ccc1O`, for which the GFP fluorescence (kMESF), higher = increase is 4.38 kMESF (inactive).
As for `Cc1ccc2nc(Cl)c3nnnn3c2c1`, the figure is 4.36 kMESF (inactive).
Turning to `O=C(NC(=S)NNC(=O)c1ccc(Cl)cc1Cl)c1cccnc1`, the GFP fluorescence (kMESF), higher = increase is 1.66 kMESF (inactive).
To `O=C1ON=C(c2ccccc2)/C1=C/c1ccco1` belongs 4.24 kMESF (inactive); to `O=c1c2sc(-c3ccccc3)cc2nc2n1CCC2`, 3.03 kMESF (inactive); to `COc1ccccc1C(=O)NNC(=S)NC(=O)c1ccco1`, 3.64 kMESF (inactive).
With `CCc1ccc(C(=O)/C=C/c2ccc([N+](=O)[O-])o2)cc1`, the GFP fluorescence (kMESF), higher = increase is 6.79 kMESF (inactive).
To `Cc1ccc(/C=C2\C(=O)NC(=S)N(c3ccc(F)cc3)C2=O)s1` belongs 4.08 kMESF (inactive); to `COc1cc(/C=C2\C(=O)N(CCC#N)N=C2C)c(Br)cc1OC(C)C`, 4.57 kMESF (inactive).
Take `Clc1cccc(CN2COc3c(cc(Cl)c4cccnc34)C2)c1`: the GFP fluorescence (kMESF), higher = increase is 8.07 kMESF (inactive).
On to `O=C(CCc1ccccc1)NNC(=S)NC(=O)c1ccccc1`, for which the GFP fluorescence (kMESF), higher = increase was 5.56 kMESF (inactive).
`O=C1N(c2ccccc2C(F)(F)F)O[C@]1(c1ccccc1)C1CCCC1`: the GFP fluorescence (kMESF), higher = increase was 2.4 kMESF (inactive).
As for `CCCOc1ccc(C(=O)NNC(=S)NC(=O)CC)cc1`, the figure is 4.12 kMESF (inactive); as for `CC(Oc1ccc(Cl)cc1)C(=O)NNC(=S)NC(=O)c1ccco1` (stereo not given), 5.05 kMESF (inactive); as for `Cc1c(C(=O)Nc2nc(-c3ccccn3)cs2)oc2ccccc12`, 4.49 kMESF (inactive).
As for `O=C(/C=C/c1ccc(Br)cc1)NC(=S)NNC(=O)c1ccco1`, the figure is 3.07 kMESF (inactive).
As for `Cc1ccc(C(=O)Oc2oc(-c3ccco3)nc2C=Nc2ccc(Cl)cc2)cc1`, the figure is 3.92 kMESF (inactive).
With `CCOc1ccc(C(Nc2cccnc2)c2cc(Cl)c3cccnc3c2O)cc1` (stereo not given), the GFP fluorescence (kMESF), higher = increase was 4.24 kMESF (inactive).
To `Cc1cc(C(=O)Nc2nc(-c3ccccn3)cs2)ccc1[N+](=O)[O-]` belongs 4.48 kMESF (inactive); to `COc1cccc2sc(Nc3nc(-c4ccccn4)cs3)nc12`, 5.3 kMESF (inactive); to `COc1ccccc1N=Nc1ccc(O)c2ncccc12`, 5.16 kMESF (inactive).
To `Cc1ccc(S(=O)(=O)/N=C(\Sc2ccccc2)c2ccccc2)cc1` belongs 3.88 kMESF (inactive); to `COc1ccc(CCNC2=C(Cl)C(=O)N(CCc3ccccc3)C2=O)cc1OC`, 2.6 kMESF (inactive); to `C=C1C(O)[C@@H]2O[C@]3(CC[C@H](/C=C/C(C)[C@@H]4CC(C)=CC5(O[C@H](C[C@@](C)(O)C(=O)O)CCC5O)O4)O3)CC[C@H]2O[C@@H]1C(O)CC(C)[C@H]1OC2(CCCCO2)CCC1C` (stereo not given in full), 1.77 kMESF (inactive).
As for `O=[N+]([O-])c1cc(Cl)cc(/C=N\Nc2ccccn2)c1O`, the figure is 4.91 kMESF (inactive); as for `COc1ccc(NC2=C(Cl)C(=O)N(CCc3ccccc3)C2=O)c(OC)c1`, 1.67 kMESF (inactive); as for `CCOC(=O)C(C(=O)OCC)C(C(=O)OCC)N1CCOCC1` (stereo not given), 4.83 kMESF (inactive).
`O=C1C(=O)c2ccccc2-c2ccccc21`: the GFP fluorescence (kMESF), higher = increase is 2.76 kMESF (inactive).
As for `Cc1ccc(S(=O)(=O)c2ccc([N+](=O)[O-])cn2)cc1`, the figure is 5.31 kMESF (inactive).
To `Cc1sc(/C=C2\C(=O)ON=C2c2ccccc2)cc1Br` belongs 1.67 kMESF (inactive); to `CC(=O)c1ccc(N2CCN(C(=O)c3ccc(Br)cc3)CC2)c(F)c1`, 2.85 kMESF (inactive); to `CC(C)(C)c1nnc(N/N=C/c2cc(Br)ccc2O)n(N)c1=O`, 2.57 kMESF (inactive).
Take `N#Cc1c2ccc([N+](=O)[O-])cc2[n+]([O-])n1-c1ccccc1`: the GFP fluorescence (kMESF), higher = increase is 1.82 kMESF (inactive).
As for `N=C1S/C(=C\c2ccco2)C(=O)N1c1nccs1`, the figure is 4.56 kMESF (inactive).
With `Cc1cc(NC(=O)c2cccnc2Cl)ccc1NC(=O)c1cc2ccccc2o1`, the GFP fluorescence (kMESF), higher = increase was 3.21 kMESF (inactive).
As for `C#CCOCCOCCOCCNc1nc(N2CCN(C(=O)CCCCCCCCCCNC(=O)[C@H](CCCCN)n3cc(C)nn3)CC2)nc(N2CCN(C(=O)CCCCCCCCCCNC(=O)[C@H](CCCN=C(N)N)n3cc(C[C@@H](C)CC)nn3)CC2)n1`, the figure is 3.34 kMESF (inactive); as for `COCCN1C(=O)/C(=C/c2ccc(N3CCCC3)cc2C)SC1=S`, 7.22 kMESF (inactive).
As for `CC1=NNC(=O)/C1=C\c1cn(-c2ccccc2)nc1-c1cccs1`, the figure is 3.14 kMESF (inactive); as for `COc1ccc(C(=O)NC(=S)NNC(=O)CCc2ccccc2)cc1`, 3.68 kMESF (inactive); as for `CCOC(=O)c1c(C)oc2c1c(C(c1ccncc1)N1CCOCC1)c(O)c1ccccc12` (stereo not given), 2.42 kMESF (inactive).
To `COc1ccc(C(=O)NNC(=S)NC(=O)/C=C/c2cccs2)cc1` belongs 5.04 kMESF (inactive); to `COc1cccc(/C=N/Nc2ncc(C(F)(F)F)cc2Cl)c1O`, 3.26 kMESF (inactive).
